Measured values: ChEMBL document CHEMBL1201862, “PubChem BioAssay data set” (2004)
Calls of active or inactive are those of the source.

Key:
[1] = inhibitors of intracellular T. cruzi replication, confirmation, NIH3T3 host cells, beta-gal luminescence (AID 2044); type: functional, cell-based;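 further: intracellular parasites grown in NIH/3T3 mouse fibroblasts as host cells; luminescent beta-galactosidase reporter signal from transgenic T. cruzi replicating inside host cells; inhibitors lower the luminescence signal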
[2] = cytotoxicity toward NIH3T3 fibroblasts, dose response, counter-screen, cell-based, ATP luminescence, mouse fibroblasts (AID 2010); type: functional;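 further: cells exposed to compound for about 90 hours before reading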
[3] = cells
[4] = cytotoxicity in HPDE-C7 cells, cell-based, fluorescence, HTS (AID 430); type: functional; conditions: Homo sapiens
[5] = cytotoxicity in KRAS-transformed pancreatic duct cells, primary screen, cell-based, fluorescence, HTS (AID 431); type: functional; conditions: Homo sapiens;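 further: cell line used: HPDE-C7K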
[6] = P. falciparum late gametocyte killing, dose response, luminescence (AID 1117278); type: functional, cell-based;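 further: gametocytes exposed to compound for 24 hours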
[7] = Jurkat T cell cytotoxicity, dose response, cytotoxicity control for P. falciparum gametocyte viability project, luminescence (AID 1117277); type: functional, cell-based;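 further: potency reflects loss of cellular ATP meaning fewer viable cells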
[8] = target: NS3 (Hepatitis C virus, UniProt A3EZJ3); assay: PubChem AID 2173; design: species or system Hepacivirus hominis
[9] = target: Major prion protein (Homo sapiens, UniProt P04156); type: functional, cell-based
[10] = cells; remark: listed apart in the source
[11] = target: Peroxisome proliferator-activated receptor gamma/Nuclear receptor coactivator 2 (Homo sapiens, UniProt P37231); type: functional;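 further: agonist potency for raising coactivator recruitment to the receptor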
[12] = target: Peroxisome proliferator-activated receptor gamma/Nuclear receptor coactivator 1 (Homo sapiens, UniProt P37231); type: functional;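 further: agonist potency as compounds enhance coactivator SRC-1 recruitment to PPARgamma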
[13] = target: Peroxisome proliferator-activated receptor gamma/Nuclear receptor coactivator 3 (Homo sapiens, UniProt P37231); type: functional;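 further: agonist potency for raising coactivator recruitment to the receptor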
[14] = target: T1, Estrogen receptor (Homo sapiens, UniProt P03372); assay: potentiators of ERα–SRC-1 coactivator binding, dose response, biochemical, TR-FRET, ERα LBD (AID 737)
T1 sequence (P03372 whole entry): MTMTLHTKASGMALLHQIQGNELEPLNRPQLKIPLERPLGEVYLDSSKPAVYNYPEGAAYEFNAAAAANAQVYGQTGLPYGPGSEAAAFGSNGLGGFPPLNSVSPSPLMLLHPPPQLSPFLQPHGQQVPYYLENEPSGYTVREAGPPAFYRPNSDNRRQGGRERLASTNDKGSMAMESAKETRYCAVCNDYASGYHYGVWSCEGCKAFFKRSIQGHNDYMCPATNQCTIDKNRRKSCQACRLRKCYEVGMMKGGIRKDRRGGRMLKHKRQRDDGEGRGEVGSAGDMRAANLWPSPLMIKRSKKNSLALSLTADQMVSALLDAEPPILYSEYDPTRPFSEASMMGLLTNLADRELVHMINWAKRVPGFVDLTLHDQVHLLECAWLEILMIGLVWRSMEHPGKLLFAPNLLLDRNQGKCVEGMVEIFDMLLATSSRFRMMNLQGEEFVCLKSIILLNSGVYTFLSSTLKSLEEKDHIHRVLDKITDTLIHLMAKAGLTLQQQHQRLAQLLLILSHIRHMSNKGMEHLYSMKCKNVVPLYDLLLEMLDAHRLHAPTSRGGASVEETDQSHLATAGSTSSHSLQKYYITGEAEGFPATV

[15] = target: Sphingosine 1-phosphate receptor 2 (Homo sapiens, UniProt O95136); assay: Dose Response Cell Based Assay for Agonists of the S1P2 Receptor of Purchased Analogues. [Related pubchem assays: 729, 843, 854, 736 ]; type: functional
[16] = target: T2, RNA-binding protein pos-1 (Caenorhabditis elegans, UniProt G5EF15); assay: inhibitors of POS-1/mex-3 RNA binding, dose response, biochemical, fluorescence polarization (AID 1964);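 further: purified POS-1 fused to maltose binding protein made in E. coli; potency of compounds blocking POS-1 binding to fluorescent RNA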
T2 sequence (G5EF15 whole entry): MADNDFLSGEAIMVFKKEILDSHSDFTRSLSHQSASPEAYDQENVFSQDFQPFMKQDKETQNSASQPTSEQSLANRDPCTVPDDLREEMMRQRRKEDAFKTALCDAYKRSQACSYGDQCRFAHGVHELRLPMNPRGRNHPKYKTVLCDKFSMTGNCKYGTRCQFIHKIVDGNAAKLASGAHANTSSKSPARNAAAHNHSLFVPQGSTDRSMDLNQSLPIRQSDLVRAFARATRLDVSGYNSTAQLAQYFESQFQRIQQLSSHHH

[17] = target: T3, Zinc finger protein mex-5 (Caenorhabditis elegans, UniProt Q9XUB2); assay: MEX-5/TCR-2 RNA interaction inhibitors, dose response, biochemical, C. elegans, fluorescence polarization (AID 1960)
T3 sequence (Q9XUB2 whole entry): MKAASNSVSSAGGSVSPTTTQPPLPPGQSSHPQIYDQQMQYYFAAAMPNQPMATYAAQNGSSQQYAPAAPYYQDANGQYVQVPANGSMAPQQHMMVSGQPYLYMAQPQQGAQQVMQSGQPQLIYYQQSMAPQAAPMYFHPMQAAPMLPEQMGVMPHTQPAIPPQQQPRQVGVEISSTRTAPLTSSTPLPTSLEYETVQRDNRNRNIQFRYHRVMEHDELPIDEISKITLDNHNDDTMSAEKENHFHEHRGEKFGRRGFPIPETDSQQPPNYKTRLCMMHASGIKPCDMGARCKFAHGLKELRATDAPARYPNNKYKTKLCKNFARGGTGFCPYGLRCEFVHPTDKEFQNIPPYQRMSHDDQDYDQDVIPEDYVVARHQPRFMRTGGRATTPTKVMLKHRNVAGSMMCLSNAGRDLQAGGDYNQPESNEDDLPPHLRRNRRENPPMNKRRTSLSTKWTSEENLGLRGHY

[18] = target: Nonstructural protein 1 (Influenza A virus, UniProt Q194T2); type: functional, Influenza A virus (A/California/07/2009(H1N1))
[19] = HeLa cell cytotoxicity, dose response, cytotoxicity control for MgcRacGAP inhibitor project (AID 624300); type: functional
[20] = target: T4, Rac GTPase-activating protein 1 (Homo sapiens, UniProt Q9H0H5); assay: MgcRacGAP GTPase-activating activity inhibitors, confirmation, biochemical, ADP Hunter fluorescence, primary and confirmatory (AID 624330); type: functional
T4 sequence (Q9H0H5 whole entry): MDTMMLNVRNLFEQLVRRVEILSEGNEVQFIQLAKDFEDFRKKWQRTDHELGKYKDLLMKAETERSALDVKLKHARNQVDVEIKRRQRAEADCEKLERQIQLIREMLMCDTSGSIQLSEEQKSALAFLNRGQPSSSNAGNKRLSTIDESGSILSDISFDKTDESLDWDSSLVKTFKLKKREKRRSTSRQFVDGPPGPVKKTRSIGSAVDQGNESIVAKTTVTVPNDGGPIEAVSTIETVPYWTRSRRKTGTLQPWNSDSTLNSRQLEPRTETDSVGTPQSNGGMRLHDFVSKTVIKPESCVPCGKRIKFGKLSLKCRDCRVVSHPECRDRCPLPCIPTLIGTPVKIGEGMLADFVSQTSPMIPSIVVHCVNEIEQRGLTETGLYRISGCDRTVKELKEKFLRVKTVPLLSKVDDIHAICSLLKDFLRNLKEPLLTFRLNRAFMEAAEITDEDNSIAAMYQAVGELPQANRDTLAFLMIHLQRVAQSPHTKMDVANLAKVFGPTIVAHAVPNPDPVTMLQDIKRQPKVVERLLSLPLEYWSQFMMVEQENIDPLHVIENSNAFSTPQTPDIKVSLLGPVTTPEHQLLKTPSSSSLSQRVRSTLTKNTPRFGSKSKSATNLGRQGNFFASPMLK

[21] = target: T5, DNA repair protein RAD52 homolog (Homo sapiens, UniProt P43351); type: functional, biochemical
T5 sequence (P43351 whole entry): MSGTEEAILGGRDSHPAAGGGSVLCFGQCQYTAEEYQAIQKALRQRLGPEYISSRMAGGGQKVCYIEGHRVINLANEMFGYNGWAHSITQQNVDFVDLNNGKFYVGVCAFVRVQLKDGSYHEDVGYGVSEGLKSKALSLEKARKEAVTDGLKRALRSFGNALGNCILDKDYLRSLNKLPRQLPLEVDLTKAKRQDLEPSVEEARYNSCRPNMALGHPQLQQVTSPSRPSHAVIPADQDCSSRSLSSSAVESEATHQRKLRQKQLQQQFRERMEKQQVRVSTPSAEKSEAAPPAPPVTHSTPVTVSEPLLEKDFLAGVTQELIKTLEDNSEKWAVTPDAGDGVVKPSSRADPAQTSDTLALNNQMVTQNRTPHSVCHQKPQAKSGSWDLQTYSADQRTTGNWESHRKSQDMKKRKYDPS

[22] = target: RNA-editing ligase 1, mitochondrial (Trypanosoma brucei brucei, UniProt P86926); assay: TbREL1 ligase inhibitors, dose response, biochemical, fluorescence, Trypanosoma brucei (AID 1117295); type: functional
[23] = target: Glyceraldehyde-3-phosphate dehydrogenase (Homo sapiens, UniProt P04406)
[24] = target: T6, Bcl-2-related protein A1 (Mus musculus, UniProt Q07440); assay: Bfl-1 inhibitors blocking BH3 peptide binding, confirmation, biochemical, TR-FRET, mouse Bfl-1 (AID 621);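 further: TR-FRET binding of GST-Bfl-1 to FITC-labelled Bid peptide via terbium antibody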
T6 sequence (Q07440 whole entry): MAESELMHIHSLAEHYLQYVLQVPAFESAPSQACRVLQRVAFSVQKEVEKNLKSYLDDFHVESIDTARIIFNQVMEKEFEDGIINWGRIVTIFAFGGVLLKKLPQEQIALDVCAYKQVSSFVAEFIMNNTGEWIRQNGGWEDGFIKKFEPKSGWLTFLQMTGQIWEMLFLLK

[25] = target: T6, Bcl-2-related protein A1; assay: Bfl-1 binding inhibitors, SAR follow-up, biochemical, fluorescence polarization (AID 1070)
[26] = target: Protein Tat (Human immunodeficiency virus type 1 group M subtype B (isolate HXB2)(HIV-1), UniProt P04608); type: functional;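 further: tat binding to TAR RNA read out by fluorescence polarization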
[27] = P. falciparum 3D7-ScDHODH growth inhibitors, dose response, SYBR Green, dry powder samples (AID 1159570); type: functional, cell-based;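 further: parasite growth measured after 72 hours of compound exposure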
[28] = P. falciparum Dd2 growth inhibitors, dose response, SYBR Green, cherry-picked samples (AID 1159567); type: functional, cell-based
[29] = P. falciparum Dd2 growth inhibitors, dose response, SYBR Green, dry powder samples (AID 1159566); type: functional, cell-based;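 further: potency for growth inhibition with lower SYBR green DNA signal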
[30] = P. falciparum ATP4 D1247Y mutant growth inhibitors, dose response, NITD609-resistant line, SYBR Green, dry powder (AID 1159571); type: functional, cell-based;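 further: parasites synchronized at ring stage by sorbitol before testing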
[31] = HEp-2 cell cytotoxicity, dose response, cytotoxicity control for RSV inhibitor project, HTS (AID 2410); type: functional; conditions: human respiratory syncytial virus
[32] = Luminescence Cell-Based Dose Confirmation HTS to Identify Activators of 5'UTR Stem-Loop Driven Alpha-Synuclein mRNA Translation in H4 Neuroglioblastoma Cells. [Related pubchem assays: 1829 (Project Summary), 1814 (Primary HTS)]; type: functional
[33] = Luminescence Cell-Based Dose Response HTS to Identify Activators of Luciferase Translation or Activity in H4 […] Cells. [Related pubchem assays: 1829 (Project Summary), 1814 (Primary HTS)]; type: functional
[34] = test system: H4; assay: Luminescence Cell-Based Dose Response HTS to Identify Activators of 5'UTR Stem-Loop Driven Prion Protein mRNA Translation in H4 Neuroglioblastoma Cells. [Related pubchem assays: 1829 (Project Summary), 1814 (Primary HTS)]; type: functional; conditions: Homo sapiens
[35] = HeLa 2N DNA content increase, dose response, cell-based, IC50 (AID 1117349); type: functional
[36] = HeLa 4N DNA content increase, dose response, cell-based, IC50 (AID 1117351); type: functional

## CCCCN(CC)CCNC(=O)c1nn(-c2ccc(OC)cc2)c(=O)c2c1c1ccccc1n2C
[1]
  EC50: < 100 nM (active)
[2]
  EC50: > 60 µM (not active)
[3]
  EC50: 207 nM (active)

## Cc1ccc(C(=O)OCC(=O)Nc2sc3c(c2C#N)CCCCC3)cc1NC(=O)c1ccco1
[4]
  EC50: > 20 µM (not active)
[5]
  EC50: > 20 µM (not active)

## CCN1CCN(C(=O)c2ccc3c(=O)n(C4CCCC4)c(=S)[nH]c3c2)CC1
[6]
  IC50: > 109 µM (inactive)
[7]
  IC50: > 83.3 µM (inactive)

## CCCOc1ccc(C(=O)C2=C(O)C(=O)N(c3ccccn3)C2c2ccccc2F)cc1C (stereo not drawn)
[8]
  IC50: 5.77 µM (active)
[9]
  IC50: 2.96 µM (active)
[10]
  IC50: > 138 µM (inactive)

## COC(=O)c1ccc(COC(=O)c2ccc(S(=O)(=O)N3CCC(C)CC3)cc2)o1
[11]
  EC50: > 79.4 µM (not active)
[12]
  EC50: > 79.4 µM (not active)
[13]
  EC50: > 79.4 µM (not active)
[14]
  EC50: 12.6 µM (not active)

## Cc1cc(C(=O)CSc2nnc(C3CC3)n2C)c(C)n1Cc1ccccc1
[15]
  EC50: > 30 µM (not active)

## Cn1c(N=Nc2ccc(N3CCOCC3)cc2)[n+](C)c2ccccc21
[16]
  EC50: > 300 µM (not active)
[17]
  EC50: 219 µM (active)
[18]
  IC50: 8.01 µM (active)
[19]
  CC50: 100 µM (active)
[20]
  IC50: 26 µM (active)
[21]
  AC50: 2.36 µM (active)
[22]
  IC50: 34 µM (inactive)

## O=C1C(Cl)=C(Cl)C(=O)N1c1ccc(Cl)cc1Cl
[23]
  IC50: > 100 µM (not active)
[24]
  IC50: 740 nM (active)
[25]
  IC50: 1.64 µM (active)

## CC(C)(Oc1ccc(Cl)cc1)C(=O)NCc1ccco1
[26]
  IC50: > 100 µM (active)

## O=[N+]([O-])c1cccc(S(=O)(=O)c2ccc(N3CCCCC3)c([N+](=O)[O-])c2)c1
[6]
  IC50: > 109 µM (inactive)
[7]
  IC50: > 83.3 µM (inactive)

## COC(=O)c1c(NC(=O)Cn2cnc([N+](=O)[O-])n2)sc2c1CCC(C)C2 (stereo not drawn)
[1]
  EC50: < 100 nM (active)
[2]
  EC50: > 60 µM (inconclusive)
[3]
  EC50: 112 nM (active)

## Cc1cc(C(=O)CN2C(=O)NC3(CCOc4ccccc43)C2=O)c(C)n1Cc1ccccc1 (stereo not drawn)
[15]
  EC50: > 30 µM (not active)

## CCS(=O)(=O)N1CCC2(CC1)CN(S(=O)(=O)c1ccc(C)cc1)[C@@H](CO)c1[nH]c3cc(OC)ccc3c12
[27]
  AC50: 1.04 µM (active)
[28]
  AC50: 1.3 µM (active)
[29]
  AC50: 880 nM (active)
[30]
  AC50: 738 nM (active)

## C[C@H]1CCC[C@@H](O)CCC/C=C/c2cc(O)cc(O)c2C(=O)O1
[31]
  CC50: 8.71 µM (active)
[32]
  EC50: 15.3 µM (active)
[33]
  EC50: > 120 µM (not active)
[34]
  EC50: > 120 µM (not active)
[14]
  EC50: 9.22 µM (active)

## Nc1nc(=O)n([C@@H]2O[C@H](CO)[C@@H](O)[C@@H]2F)cc1I [FIACITABINE]
[35]
  IC50: > 10 µM (inactive)
[36]
  IC50: > 10 µM (inactive)
